Reference: publication PMC9405123, “Design, Synthesis and Mechanistic Studies of Novel Isatin-Pyrazole Hydrazone Conjugates as Selective and Potent Bacterial MetAP Inhibitors” (Antibiotics, 2022)
In brackets after ≈: the same amount, converted by molar mass.

Key:
[1] = system: HK1; assay: MIC on environmental MDR isolate (microdilution)
[2] = system: B. subtilis; assay: Minimum inhibitory concentration (broth dilution); assay type: cell-based; settings: Bacillus subtilis, alone
[3] = system: E. faecalis; assay: Minimum inhibitory concentration (broth dilution); assay type: cell-based; settings: Enterococcus faecalis, alone
[4] = system: HK1; assay: MBC on environmental MDR isolate
[5] = system: B. subtilis; assay: Growth inhibition screening (broth dilution); assay type: cell-based, Bacillus subtilis
Outline: (§1)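 NCCLS broth dilution in nutrient broth with compounds from DMSO at a final 250 µg/mL. About 2.5 × 10^5 cells/mL were inoculated and incubated overnight at 37 °C. Growth was measured as turbidity at 590 nm.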

[6] = molecular target: T1, MtMetAP1c (Mycobacterium tuberculosis, UniProt P9WK19); assay: MetAP enzyme inhibition, Morrison Ki (Met-AMC fluorescence); assay type: biochemical, M. tuberculosis; settings: Morrison Ki method
T1 construct: made in house
Experimental: MetAP appears to serve a vital role in the co- or post-translational modification of proteins, making it essential for bacterial cell metabolism and survival. In this study, all enzymes, which were used for this study, including MtMetAP1c (M. tuberculosis), EfMetAP1a (E. faecalis), SpMetAP1a (S. pneumoniae) and HsMetAP1b (H. sapiens) enzymes, were expressed and purified in our lab as previously reported. All compounds prepared 10 mM stocks in DMSO and were used for enzyme inhibition studies. The concentration of each enzyme is adjusted such that they have similar reaction rates (HsMetAp1b, 1 µM; SpMetAP1a, 5 µM; EfMetAP1a, 1 µM; MtMetAP1c, 1 µM;) as reported earlier. All assays were performed in […] reaction containing 50 mM HEPES (pH 7.5 for SpMetAP1a and HsMetAP1b; 8.0 for EfMetAP1a, MtMetAP1c, […]), 150 mM NaCl, and CoCl2 (three molar equivalents of corresponding enzymes). The reaction was started by adding 50 μM L-Methionine 7-amido-4-methyl coumarin (Met-AMC) and continuously monitoring the fluorescence of released 7-amino-4-methyl coumarin (AMC) (380 nm excitation and 460 nm emission) in a microplate multimode reader (TECAN, Austria). The maximum percentage of inhibition against enzymes is calculated at […] compound concentration. […] The Ki values were determined according to the Morrison method using three different concentrations of substrates and ten different concentrations of the inhibitor. All experiments were performed in triplicate. GraphPad Prism version 8.0.0 (San Diego, CA, USA) was used to determine all the kinetic parameters.

[7] = system: LG1; assay: MBC on environmental MDR isolate
[8] = system: HK43; assay: MIC on environmental MDR isolate (microdilution); settings: Exiguobacterium mexicanum
[9] = system: LG24; assay: MIC on environmental MDR isolate (microdilution); settings: Escherichia coli
[10] = system: SH28; assay: MBC on environmental MDR isolate; settings: Aeromonas caviae
[11] = system: P. aeruginosa; assay: Minimum bactericidal concentration; assay type: cell-based, Pseudomonas aeruginosa; settings: Pseudomonas aeruginosa
[12] = system: P. aeruginosa PAO1; assay: In vivo antibacterial efficacy in infected larvae; settings: P. aeruginosa infected larvae (1.5 × 10^9 CFU/mL); PS9 1000 μg/mL; 48 and 72 h
[13] = system: B. subtilis; assay: Combination study with AMP or CIP
[14] = system: HK91; assay: MBC on environmental MDR isolate; settings: Ralstonia
[15] = system: E. faecalis; assay: Growth kinetics; assay type: cell-based, Enterococcus faecalis
Experimental: Bacterial strains were tested as mentioned in Habib et al.. Briefly, ½ MIC, MIC and 2MIC values of PS9 were taken to assess the growth of bacterial strains whereas untreated cells and media were taken as positive and negative control, respectively.

[16] = system: SH34; assay: MIC on environmental MDR isolate (microdilution); settings: Serratia marcescens
[17] = molecular target: T2, HsMetAP1b (Homo sapiens, UniProt P53582); assay: MetAP enzyme inhibition, Morrison Ki (Met-AMC fluorescence); assay type: biochemical, H. sapiens; settings: Morrison Ki method
T2 construct: made in house

[18] = system: E. coli; assay: Time-kill curve assay; assay type: cell-based, Escherichia coli
Experimental: A time–kill curve study was performed against bacterial strains (E. coli, E. faecalis, K. pneumonia and P. aeruginosa) to determine whether compound PS9 is bactericidal or bacteriostatic. MIC, 2MIC and 4MIC concentrations were employed for the time–kill assay as explained by Ali et al.. Untreated bacterial cells were used as a control. 100 µL aliquot was taken from each flask at regular intervals. An aliquot was further diluted in phosphate buffer saline solution and from each concentration 50 µL aliquot was inoculated on a nutrient agar plate and spread. Colonies were counted after the incubation of the plate at 37 °C. For each strain, the average (mean) colony count data (log10 CFU/mL) was plotted against time.

[19] = system: LG20; assay: MIC on environmental MDR isolate (microdilution)
[20] = system: P. aeruginosa; assay: Growth inhibition screening (broth dilution); assay type: cell-based, Pseudomonas aeruginosa
Outline: as §1

[21] = system: JST78; assay: MIC on environmental MDR isolate (microdilution); settings: Escherichia coli
[22] = system: LG51; assay: MIC on environmental MDR isolate (microdilution); settings: Escherichia coli

T1 sequence (P9WK19 whole entry): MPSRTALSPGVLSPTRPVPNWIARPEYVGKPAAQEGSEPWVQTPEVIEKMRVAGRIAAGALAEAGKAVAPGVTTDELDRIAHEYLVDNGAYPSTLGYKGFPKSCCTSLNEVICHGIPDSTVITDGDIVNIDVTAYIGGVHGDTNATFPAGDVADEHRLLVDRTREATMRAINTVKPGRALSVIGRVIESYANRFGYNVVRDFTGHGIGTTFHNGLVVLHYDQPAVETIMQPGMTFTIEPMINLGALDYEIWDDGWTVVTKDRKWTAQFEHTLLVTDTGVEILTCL

Which MIC [1] does the source give for `O=C1Nc2ccc(F)cc2/C1=N\NC(=O)c1cc(-c2cccc(Br)c2)n[nH]1` [PS9, (E)-3-(3-Bromophenyl)-N′-(5-Fluoro-2-Oxoindolin-3-Ylidene)-1H-Pyrazole-5-Carbohydrazide] here?
The MIC was 16 mg/L (≈ 37.4 µM).

And the “MIC lower than standard antibiotic AMP” value ([1]; isolate HK1)?
Its value is 16 times.

And the “MIC lower than third-generation drug CTX” value ([1]; isolate HK1)?
The value was 8 times.

And the MIC [2]?
Its MIC is 32 mg/L (≈ 74.7 µM).

And the MIC [3]?
The MIC was 8 mg/L (≈ 18.7 µM).

And the MBC [4]?
Its MBC is 512 mg/L (≈ 1200 µM).

And the inhibition at 250 µg/mL ([5]; Bacillus subtilis)?
Its inhibition at 250 µg/mL is at least 94%.

What about the “% Growth Inhibition at 250 µg/mL” value ([5]; listed as C00009) of the same compound?
Its value is 100%.

And the Ki [6]?
The Ki was 0.31 µM.

And the MBC [7]?
Its MBC is 128 mg/L (≈ 299 µM).

And the MIC [8]?
The MIC was 16 mg/L (≈ 37.4 µM).

And the MIC [9]?
The MIC was over 1020 mg/L.

What about the MBC [10] of the same compound?
The MBC was 512 mg/L (≈ 1200 µM).

What about the MBC [11] of the same compound?
Its MBC is 16 mg/L (≈ 37.4 µM).

And the “effect on death of infected larvae” value [12]?
Its value is “small protective effect”.

And the “MIC in Combination” value ([13]; combination PS9 + AMP)?
The value was 4 mg/L.

And the “MIC in Combination” value ([13]; combination PS9 + CIP)?
The value was 8 mg/L.

And the FICI ([13]; combination with AMP)?
The FICI was 0.62.

And the “Mode of Interaction” value ([13]; combination with AMP)?
The value was “Indifferent (in between 0.5 and 4)”.

What about the FICI ([13]; combination with CIP) of the same compound?
Its FICI is 4.25.

What about the MBC [14] of the same compound?
Its MBC is 16 mg/L (≈ 37.4 µM).

And the growth ([15]; 2MIC)?
The growth was “no growth was observed in both cultures at 2MIC concentration till 24 h”.

What about the growth ([15]; MIC) of the same compound?
Its growth is “no significant growth was found at MIC up to 10 h”.

And the MIC [16]?
The MIC was over 1020 mg/L.

What about the Ki [17] of the same compound?
The Ki was 632 ± 16.3 µM.

What about the “killing (log10 CFU/mL with time)” value ([18]; 4MIC, after 16 h) of the same compound?
Its value is “significant eradication”.

And the “killing (log10 CFU/mL with time)” value ([18]; MIC, till 16 h)?
The value was “no 100% eradication”.

What about the MIC ([19]; Enterobacter, isolate LG20 Enterobacter sp.) of the same compound?
The MIC was under 1 mg/L.

And the “MIC lower than AMP and CTX” value ([19]; isolate LG20)?
The value was 32 times.

What about the inhibition at 250 µg/mL ([20]; Pseudomonas aeruginosa) of the same compound?
The inhibition at 250 µg/mL was at least 94%.

What about the “% Growth Inhibition at 250 µg/mL” value ([20]; listed as C00009) of the same compound?
Its value is 100%.

What about the MIC [21] of the same compound?
The MIC was 1000 mg/L (≈ 2340 µM).

What about the MIC [22] of the same compound?
The MIC was 1000 mg/L (≈ 2340 µM).
